Literature values, collected in paper PMC11369081, “Molecular mechanism of prolactin-releasing peptide recognition and signaling via its G protein-coupled receptor” (Cell Discovery, 2024).
Ends that are not written are not given here.

Tested on: PrRPR
Conditions: cited from earlier work
Experimental: In both structures, the intramolecular motif of W8, Y9, and R12 within PrRP20 stabilizes its α-helical structure (Fig. 2h). […] Th ...

## C-terminal heptapeptide (I14–F20): shortest effective analog is a C-terminal heptapeptide (I14–F20) (IRPVGRF; ends and bridges not checked; UniProt P81277 47-53, looked up, fragment)
Deletion analysis of PrRP20 N-terminal region, vs PrRP20, ref [9]
  affinity of shortest effective analog: substantially lower affinity

## PrRP20 analog (W8–F20): PrRP20 analog (W8–F20) (WYASRGIRPVGRF; ends and bridges not checked; UniProt P81277 41-53, looked up, fragment)
structure-activity relationship studies, ref [21]
  activity in vitro: did not show reduced activity in vitro
